Source: patent publication US7476670B2, “Purine derivatives, method for preparing, pharmaceutical compositions and novel use” (Aventis Pharma S.A., priority 2003, dated 2009)

Columns and labels:
Type in all cases: biochemical
CAN Kinase II = experiment: Assay for inhibition for CAN kinase II activity; conditions: [33P]ATP, calmodulin
Protocol: The inhibition of the kinase activity is determined by. measuring the phosphorylation of its substrate peptide.
The assay is carried out in a final volume of 50 μl.
The incubation buffer is as follows:
• 20 mM MOPS pH 7.4 • 5 mM MgCl2 • 5 mM CaCl2 • 1 mM DTT • 100 μM Na2VO4 • 25 mM Beta-glycerophosphate 5 μl of the 10-times concentrated inhibitor are added to 25 μl of incubation buffer containing 0.2 μg/μl final concentration of the enzyme (Tebu, SE-134); 10 μl of incubation buffer containing 5 μM final concentration of substrate and 1600 U/ml final concentration of calmodulin are then added and, finally, 10 μl of incubation buffer containing 20 μM ATP and radiolabeled ATP, [^33P]ATP (0.05 μCi), are added. The reaction is stopped after incubation for 40 minutes at ambient temperature. • Results obtained expressed as percentage inhibition at 20 μM • Example 30 98% 9) Assay for Inhibition of EGF tyr Kinase Activity

GSK3beta = GSK3beta (Homo sapiens, UniProt P49841); experiment: Assay for inhibition of GSK3beta activity; conditions: [33P]ATP; read-out: IC50s expressed as micromolar
Protocol: The inhibition of the kinase activity is determined by measuring the phosphorylation of its substrate peptide.
The assay is carried out in a final volume of 40 μl; all the reagents are prepared in a buffer: • 50 mM HEPES pH 7.5 • 0.03% triton X100 • 10 mM MgCl2 • 5% Glycerol • 1 mM DTT 10 μl of the 10-times concentrated inhibitor are added to 5 μl of enzyme (20 ng final concentration), and 5 μl of peptide (1 μM final concentration) then 2.5 μof incubation buffer containing 16 μM ATP and 2.5 μl of radiolabeled ATP, [^33P]ATP (50 nCi) are added. After incubation for 15 minutes at ambient temperature, 10 μl of incubation buffer containing 1 μM of substrate.

ZAP kinase = target: T1, ZAP kinase (Homo sapiens, UniProt P43403); experiment: Assay for inhibition of ZAP kinase activity; conditions: fluorescence polarization, read-out: percentage inhibition at 20 μM
T1 construct: purchased Panvera P2782
T1 sequence (P43403 1-619): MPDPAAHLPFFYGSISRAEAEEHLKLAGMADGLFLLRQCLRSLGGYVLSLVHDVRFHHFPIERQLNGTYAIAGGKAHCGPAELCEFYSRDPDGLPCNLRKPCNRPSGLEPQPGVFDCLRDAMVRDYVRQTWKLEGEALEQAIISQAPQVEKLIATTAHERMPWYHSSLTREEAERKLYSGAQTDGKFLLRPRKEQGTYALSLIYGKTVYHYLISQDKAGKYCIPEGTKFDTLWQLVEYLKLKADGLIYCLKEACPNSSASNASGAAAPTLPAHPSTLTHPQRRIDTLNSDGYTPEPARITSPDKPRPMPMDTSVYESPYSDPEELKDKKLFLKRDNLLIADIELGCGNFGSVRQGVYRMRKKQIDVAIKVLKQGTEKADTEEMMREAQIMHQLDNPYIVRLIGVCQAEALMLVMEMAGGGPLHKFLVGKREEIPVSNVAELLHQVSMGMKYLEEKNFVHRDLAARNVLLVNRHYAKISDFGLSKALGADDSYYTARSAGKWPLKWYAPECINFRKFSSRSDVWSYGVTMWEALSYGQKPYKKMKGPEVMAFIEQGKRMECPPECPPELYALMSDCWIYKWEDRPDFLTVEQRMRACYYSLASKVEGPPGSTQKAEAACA
Protocol: The inhibition of the kinase activity is determined by fluorescence polarization, the ZAP kinase phosphorylates a peptide detected by adding an anti-phosphopeptide antibody coupled to a fluorescent label.
The assay is carried out in a final volume of 50 μl; all the reagents are prepared in a buffer: • 20 mM Tris/HCl pH 7.7 • 7 mM MnCl2 • 50 μM Na2VO4 5 μl of the 10-times concentrated inhibitor are added to 25 μl of enzyme (0.7 μg/ml final concentration) (Panvera ref P2782). After incubation for 5 minutes at ambient temperature, 10 μl of PolyGT (300 ng/ml final concentration) and 10 μl of ATP (0.25 μM final concentration) are added. The detection is carried out after incubation for 15 minutes at ambient temperature. • Results obtained expressed as percentage inhibition at 20 μM • Example 8 98% • Example 20 95% • Example 24 96% 7) Assay for Inhibition of Casein Kinase II Activity

JNK3 kinase = JNK3 kinase (Homo sapiens, UniProt P53779); experiment: Assay for inhibition of JNK3 activity; conditions: fluorescence polarization, ATP 6 μM; read-out: IC50s expressed as micromolar
Protocol: The inhibition of the kinase activity is determined by fluorescence polarization, the JNK3 kinase phosphorylates a peptide detected by adding an anti-phosphopeptide antibody coupled to a fluorescent label.
The assay is carried out in a final volume of 30 μl; all the reagents are prepared in a buffer: • 50 mM HEPES pH 7.5 • 0.03% triton X100 • 10 mM MgCl2 • 5% Glycerol • 1 mM DTT 10 μl of the 10-times concentrated inhibitor are added to 5 μl of enzyme (40 ng final concentration), and 5 μl of incubation buffer containing 100 ng of substrate and 10 μl of ATP (6 μM final concentration) are added.

Chain of GSK3beta (P49841 whole entry, species assumed): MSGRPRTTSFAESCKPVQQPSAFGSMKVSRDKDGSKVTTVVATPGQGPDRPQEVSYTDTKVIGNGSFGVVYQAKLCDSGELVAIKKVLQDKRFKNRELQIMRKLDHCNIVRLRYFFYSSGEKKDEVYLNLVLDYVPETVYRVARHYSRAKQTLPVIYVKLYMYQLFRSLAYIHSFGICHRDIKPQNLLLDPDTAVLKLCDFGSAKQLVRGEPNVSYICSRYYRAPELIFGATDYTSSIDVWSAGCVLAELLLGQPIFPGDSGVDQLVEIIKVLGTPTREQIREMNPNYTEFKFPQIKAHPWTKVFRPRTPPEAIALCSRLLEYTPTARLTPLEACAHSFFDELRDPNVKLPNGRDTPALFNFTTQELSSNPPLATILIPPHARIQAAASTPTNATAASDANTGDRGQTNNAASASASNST
Chain of JNK3 kinase (P53779 whole entry): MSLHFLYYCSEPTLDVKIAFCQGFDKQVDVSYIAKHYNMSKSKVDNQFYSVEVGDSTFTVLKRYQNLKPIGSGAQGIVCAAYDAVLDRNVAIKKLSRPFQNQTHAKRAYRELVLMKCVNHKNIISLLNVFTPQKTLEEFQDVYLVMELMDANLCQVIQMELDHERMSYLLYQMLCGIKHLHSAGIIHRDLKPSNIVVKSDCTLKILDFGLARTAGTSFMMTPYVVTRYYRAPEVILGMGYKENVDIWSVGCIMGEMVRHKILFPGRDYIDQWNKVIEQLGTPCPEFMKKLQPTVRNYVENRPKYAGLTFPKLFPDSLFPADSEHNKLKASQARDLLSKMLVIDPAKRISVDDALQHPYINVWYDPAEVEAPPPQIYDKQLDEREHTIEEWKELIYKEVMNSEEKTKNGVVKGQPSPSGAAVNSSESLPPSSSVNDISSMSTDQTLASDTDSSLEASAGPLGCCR

SMILES | percentage inhibition at 20 μM (CAN Kinase II) | IC50 (GSK3beta) | inhibition at 20 µM (ZAP kinase) | IC50 (JNK3 kinase)
Cl.Cl.N[C@H]1CC[C@H](Nc2nc(N3CCc4cc([N+](=O)[O-])ccc43)c3nc[nH]c3n2)CC1 [Example 30, Trans-N-[6-(2,3-dihydro-5-nitro-1H-indol-1-yl)-9H-purin-2-yl]-1,4-cyclohexanediamine dihydrochloride] | 98% | 1.5 µM | – | –
Cl.N[C@H]1CC[C@H](Nc2nc(-n3cnc4cc(Cl)c(Cl)cc43)c3nc[nH]c3n2)CC1 [Example 8, Trans-N-[6-(5,6-dichloro-1H-benzimidazol-1-yl)-9H-purin-2-yl]-1,4-cyclohexanediamine hydrochloride] | – | – | 98% | 0.84 µM
